Assay results published in patent publication EP1064002B9, “USE OF SPHINGOSIN-1-PHOSPHATE, SPHINGOSIN-1-PHOSPHATE DERIVATIVES AND/OR MIXTURES THEREOF FOR THE TREATMENT OF INFLAMMATORY DISEASES OF THE SKIN” (Dermapharm AG, priority 1998, dated 1999).

What was measured:
Format in all cases: cell-based
[1] = system: Keratinozyten; test: Keratinocyte proliferation in keratinocyte basal medium (KBM) without supplements
Excerpt: Die Versuche wurden auch in "keratinocyte basal medium" (KBM), ohne Supplemente), an kultivierten Keratinozyten durchgeführt. Damit konnte festgestellt werden, daß SPP bzw. […] DMS und C2C wirkten auch in diesem Medium toxisch.

[2] = system: Keratinozyten; test: Keratinocyte proliferation in KGM, [3H]-thymidine incorporation into DNA; settings: 4-day treatment; for Proliferation von Keratinozyten ([^3H]-Thymidineinbau in die DNA): 1-10 µM
Protocol: (§1) Die Proliferation von Keratinozyten wurde in Gegenwart von 1-10 µM von Sphingolipid-Derivaten untersucht. Nach 4-tägiger Behandlung mit verschiedenen Sphingolipiden wurde in der logarithmischen Wachstumsphase der Keratinozyten der [^3H]-Thymidineinbau in die DNA gemessen. […] Eine Proliferationshemmung tritt bereits bei einer Konzentration von 1 µM ein, 10 µM SPP reduzierten den Thymidineinbau um ca. 63,1 % (Abb. 1). […] Anhand des MTT-Tests wurde die Zellvitalität in Gegenwart von 1-25 µM SPP untersucht, bis 10 µM wirkten die Substanzen nicht toxisch. […] Dies zeigten mikroskopische Untersuchungen, der MTT-Test als auch durchflußzytometrische Untersuchungen zu Apoptose und Nekrose.

[3] = system: Fibroblasten; test: Fibroblast proliferation, non-stimulated cells in serum-free medium (DMEM without FKS)
Excerpt: (§2) Das Wachstumsverhalten menschlicher. Fibroblasten in Gegenwart der Testsubstanzen wurde an nicht stimulierten Zellen verfolgt, die in serumfreiem Medium (nach Dulbecco modifiziertes Earle-Medium (DMEM) ohne fetales Kälber-Serum (FKS)) kultiviert wurden.

[4] = as above; settings: human, fibroblasts, read-out: Konzentrationen mit ausgeprägter Toxizität an Fibroblasten
Excerpt: as §2

[5] = system: Keratinozyten; test: Keratinocyte differentiation, transglutaminase activity
Excerpt: Nachdem gezeigt worden war, daß SPP die Proliferation von Keratinozyten hemmt, ohne daß damit eine vermehrte Toxizität verbunden ist, wurde der Differenzierungsgrad der Zellen nach Einwirkung der Sphingolipid-Derivate untersucht.

[6] = Keratinocyte viability/toxicity: MTT test, microscopy, flow cytometry for apoptosis and necrosis; settings: keratinocytes; tested at 1-25 µM; read-out: Zellvitalität (MTT-Test): nicht toxisch bis
Protocol: as §1

CCCCCCCCCCCCC/C=C/[C@@H](O)[C@H](CO)NC(C)=O [C2C, C2-Ceramid]
Toxizität an Keratinozyten [1]: toxisch
Proliferation von Keratinozyten ([^3H]-Thymidineinbau in die DNA) [2]: hemmten zwar ebenso den Thymidineinbau
Proliferation von Fibroblasten ([3]; low concentrations): sehr geringe proliferationsfördernde Wirkung
MCC [4]: ≥ 5 µM

C=C1/C(=C\C=C2/CCC[C@]3(C)[C@@H]([C@H](C)CCCC(C)(C)O)CC[C@@H]23)C[C@@H](O)C[C@@H]1O [Calcitriol]
Differenzierung von Keratinozyten (Transglutaminase-Aktivität) [5]: ebenfalls eine Differenzierung fördert

CCCCCCCCCCCCC/C=C/[C@@H](O)[C@H](CO)N(C)C [DMS, Dimethylsphingosin]
Toxizität an Keratinozyten [1]: toxisch
MCC [4]: ≥ 5 µM

CCCCCCCCCCCCC/C=C/[C@@H](O)[C@@H](N)CO [SPH, Sphingosin]
mitogene Effekte an Keratinozyten [1]: keine mitogenen Effekte
Proliferation von Keratinozyten ([^3H]-Thymidineinbau in die DNA) [2]: wachstumshemmende Wirkung
antiproliferative effect compared with another substance [2]: schwächer ausgeprägt als bei SPP
Differenzierung von Keratinozyten (Transglutaminase-Aktivität) [5]: die Differenzierung von Keratinozyten förderten
Zunahme der Differenzierung von Keratinozyten compared with Calcitriol D3 [5]: durchaus vergleichbar
Wirkstärke (Teilungsaktivität bei Fibroblasten) compared with SPP [3]: niedriger als bei SPP
toxische Effekte an Fibroblasten ([3]; 10 µM): toxische Effekte
Proliferation von Fibroblasten ([3]; concentration-dependent): konzentrationsabhängig stark' stimuliert

CCCCCCCCCCCCC/C=C/[C@@H](O)[C@@H](N)COP(=O)(O)O [SPP, Sphingosin-1-Phosphat]
MNTC [6]: ≤ 10 µM
mitogene Effekte an Keratinozyten [1]: keine mitogenen Effekte
Proliferation von Keratinozyten ([^3H]-Thymidineinbau in die DNA) [2]: stark proliferationshemmend
antiproliferative effect compared with another substance [2]: ebenso potent wie Calcipotriol D3
inhibition at 10 µM ([2]; Keratinocyte, 96 h, 10 µM, logarithmic growth phase, read-out: reduzierten den Thymidineinbau um): ~63.1%
minimal effective concentration ([2]; Keratinocyte, 96 h, read-out: Konzentration, bei der eine Proliferationshemmung bereits eintritt): 1 µM
Differenzierung von Keratinozyten (Transglutaminase-Aktivität) [5]: die Differenzierung von Keratinozyten förderten
Zunahme der Differenzierung von Keratinozyten compared with Calcitriol D3 [5]: durchaus vergleichbar
Proliferation von Fibroblasten ([3]; 1 µM): wahrnehmbare Proliferationszunahme
fold induction at 10 µM ([3]; Fibroblast, 10 µM, read-out: höchste Aktivität (Proliferation von Fibroblasten)): ~6.5
Proliferation von Fibroblasten ([3]; concentration-dependent): konzentrationsabhängig stark' stimuliert
